Laboratory results as given in patent publication US20230278972A1, “SUBSTITUTED HALOALKYL SULFONANILIDE HERBICIDES” (FMC Corporation, priority 2020, published 2023).

Key:
Format in all cases: in vivo
[1] = test system: Oat, Wild (wild oat, Avena fatua); test: Test A1 postemergence, Oat, Wild; details: Postemergence
In short: (§1)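 Pre: seeds in loam/sand blend, directed soil spray. Post: potted plants, same soil, 2–10 cm, 1–2 leaf stage. Chemicals in non-phytotoxic solvent + surfactant for both.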

[2] = test system: wheat (Triticum aestivum); test: Test A1 postemergence, wheat; details: Postemergence
In short: (§2)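 Both timings started from seed in a loam-sand blend. Preemergence pots got a directed soil application immediately; postemergence pots were sprayed when seedlings had one or two leaves and stood 2–10 cm. Each compound was prepared in a non-phytotoxic solvent plus surfactant.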

kochia (Bassia scoparia) [3] = test: Test A1 preemergence, kochia
In short: as §1

[4] = test system: horseweed (Erigeron canadensis); test: Test A1 postemergence, horseweed; details: Postemergence
In short: as §2

[5] = test system: wheat (Triticum aestivum); test: Test A1 preemergence, wheat
In short: as §1

rice (Oryza sativa) = test: Test B1 flooded paddy test, rice; details: 250 g ai/ha, Flood, applied to paddy water, 2-leaf stage, visually evaluated after 10 to 14 days
Source text: (§3) A dash (-) response means no test result.

[6] = test system: Foxtail, Giant (giant foxtail, Setaria faberi); test: Test A1 postemergence, Foxtail, Giant; details: Postemergence
In short: as §2

[7] = test system: blackgrass (Alopecurus myosuroides); test: Test A1 postemergence, blackgrass; details: Postemergence, 0 to 100 scale (0 no effect, 100 complete control)
In short: as §2

[8] = test system: Ryegrass, Italian (Italian ryegrass, Lolium multiflorum); test: Test A1 postemergence, Ryegrass, Italian; details: Postemergence
In short: as §2

[9] = test system: Pigweed, Palmer (palmer amaranth, palmer pigweed, Amaranthus palmeri); test: Test A1 postemergence, Pigweed, Palmer; details: Postemergence
In short: as §1

kochia (Bassia scoparia) [10] = test: Test A1 postemergence, kochia; details: Postemergence
In short: as §2

[11] = test system: Foxtail, Giant (giant foxtail, Setaria faberi); test: Test A1 preemergence, Foxtail, Giant
In short: as §1

[12] = test system: ducksalad (Heteranthera limosa); test: Test B1 flooded paddy test, ducksalad; details: 250 g ai/ha, Flood, applied to paddy water, 2-leaf stage, visually evaluated after 10 to 14 days
Source text: as §3

[13] = test system: goosegrass (Eleusine indica); test: Test A1 preemergence, goosegrass
In short: as §1

soybean (Glycine max) [14] = test: Test A1 postemergence, soybean; details: Postemergence
In short: as §2

[15] = test system: blackgrass (Alopecurus myosuroides); test: Test A1 preemergence, blackgrass
In short: as §1

[16] = test system: ragweed (common ragweed, Ambrosia artemisiifolia); test: Test A1 preemergence, ragweed
In short: as §1

soybean (Glycine max) [17] = test: Test A1 preemergence, soybean
In short: as §1

[18] = test system: ragweed (common ragweed, Ambrosia artemisiifolia); test: Test A1 postemergence, ragweed; details: Postemergence
In short: as §1

[19] = test system: Oat, Wild (wild oat, Avena fatua); test: Test A1 preemergence, Oat, Wild
In short: as §1

[20] = test system: galium (catchweed bedstraw, Galium aparine); test: Test A1 postemergence, galium; details: Postemergence
In short: as §2

[21] = test system: goosegrass (Eleusine indica); test: Test A1 postemergence, goosegrass; details: Postemergence
In short: as §2

corn (Zea mays) [22] = test: Test A1 postemergence, corn; details: Postemergence
In short: as §1

[23] = test system: Pigweed, Palmer (palmer amaranth, palmer pigweed, Amaranthus palmeri); test: Test A1 preemergence, Pigweed, Palmer
In short: as §1

[24] = test system: Ryegrass, Italian (Italian ryegrass, Lolium multiflorum); test: Test A1 preemergence, Ryegrass, Italian
In short: as §1

[25] = test system: barnyardgrass (Echinochloa crus-galli); test: Test B1 flooded paddy test, barnyardgrass; details: 250 g ai/ha, Flood, applied to paddy water, 2-leaf stage, visually evaluated after 10 to 14 days
Source text: as §3

corn (Zea mays) [26] = test: Test A1 preemergence, corn
In short: as §1

[27] = 31 g ai/ha, 0 to 100 scale (0 no effect, 100 complete control), 10 days
[28] = 31 g ai/ha, 0 to 100 scale (0 no effect, 100 complete control)
[29] = 125 g ai/ha, 0 to 100 scale, 0 no effect, 100 complete control

COC(=O)OCN(c1cc(C2=NOC3CCCC23)c(C)cc1C)S(=O)(=O)C(F)(F)F (stereo not drawn) [Compound 315]
98: Plant response rating, Barnyardgrass (0 to 100 scale, 0 is no effect, 100 is complete control) [25]
35: Plant response rating, Rice (0 to 100 scale, 0 is no effect, 100 is complete control) (rice (Oryza sativa))
30: Plant response rating, Wheat [2, 27] | Plant response rating, Pigweed, Palmer [9, 27]
70: Plant response rating, Wheat ([2]; 125 g ai/ha, 0 to 100 scale) | Plant response rating, Wheat [5, 29] | Plant response rating, Ryegrass, Italian ([8]; 125 g ai/ha, 0 to 100 scale) | Plant response rating, Foxtail, Giant [11, 28] | Plant response rating, Galium [20, 27] | Plant response rating, Ryegrass, Italian [24, 28]
20: Plant response rating, Oat, Wild ([1]; 125 g ai/ha, 0 to 100 scale) | Plant response rating, Horseweed [4, 27] | Plant response rating, Wheat [5, 28] | Plant response rating, Foxtail, Giant ([6]; 125 g ai/ha, 0 to 100 scale) | Plant response rating, Blackgrass [15, 28] | Plant response rating, Ragweed [16, 28] | Plant response rating, Ragweed [18, 27] | Plant response rating, Oat, Wild [19, 29] | Plant response rating, Corn (corn (Zea mays) [22]; [27]) | Plant response rating, Corn (corn (Zea mays) [22]; 125 g ai/ha, 0 to 100 scale) | Plant response rating, Corn (corn (Zea mays) [26]; [29])
10: Plant response rating, Ryegrass, Italian [8, 27] | Plant response rating, Corn (corn (Zea mays) [26]; [28])
90: Plant response rating, Foxtail, Giant [11, 29] | Plant response rating, Ducksalad (0 to 100 scale, 0 is no effect, 100 is complete control) [12] | Plant response rating, Goosegrass [13, 28] | Plant response rating, Galium ([20]; 125 g ai/ha, 0 to 100 scale) | Plant response rating, Pigweed, Palmer [23, 29]
40: Plant response rating, Soybean (soybean (Glycine max) [14]; [27]) | Plant response rating, Soybean (soybean (Glycine max) [17]; [28])
80: Plant response rating, Kochia (kochia (Bassia scoparia) [10]; 125 g ai/ha, 0 to 100 scale) | Plant response rating, Ragweed ([18]; 125 g ai/ha, 0 to 100 scale) | Plant response rating, Goosegrass [21, 27] | Plant response rating, Goosegrass ([21]; 125 g ai/ha, 0 to 100 scale)
100: Plant response rating, Goosegrass [13, 29] | Plant response rating, Pigweed, Palmer [23, 28] | Plant response rating, Ryegrass, Italian [24, 29]
50: Plant response rating, Pigweed, Palmer ([9]; 125 g ai/ha, 0 to 100 scale) | Plant response rating, Kochia (kochia (Bassia scoparia) [10]; [27]) | Plant response rating, Soybean (soybean (Glycine max) [17]; [29])
60: Plant response rating, Kochia (kochia (Bassia scoparia) [3]; [29]) | Plant response rating, Horseweed ([4]; 125 g ai/ha, 0 to 100 scale) | Plant response rating, Soybean (soybean (Glycine max) [14]; 125 g ai/ha, 0 to 100 scale) | Plant response rating, Blackgrass [15, 29] | Plant response rating, Ragweed [16, 29]
0: Plant response rating, Oat, Wild [1, 27] | Plant response rating, Kochia (kochia (Bassia scoparia) [3]; [28]) | Plant response rating, Foxtail, Giant [6, 27] | Plant response rating, Blackgrass ([7]; 31 g ai/ha, 10 days) | Plant response rating, Blackgrass ([7]; 125 g ai/ha) | Plant response rating, Oat, Wild [19, 28]
